Assay results taken from ChEMBL document CHEMBL3576804, “Novel Potent Orthosteric Antagonist of ASIC1a Prevents NMDAR-Dependent LTP Induction” (J Med Chem, 2015).
One block for each compound: values may come before it. The source made the active and inactive calls. The calls are words filed in the database; no cut-off is given here.

What was measured:
[1] = biological target: T1, Acid-sensing ion channel 1 (Homo sapiens) (UniProt P78348); assay: Inhibition of human ASIC1a endogenously expressed in HEK293 cells clamped at -100 mV gated ionic current at 100 uM at pH 5.0 by standard whole cell patch clamp assay; assay type: cell-based
T1 sequence (whole entry): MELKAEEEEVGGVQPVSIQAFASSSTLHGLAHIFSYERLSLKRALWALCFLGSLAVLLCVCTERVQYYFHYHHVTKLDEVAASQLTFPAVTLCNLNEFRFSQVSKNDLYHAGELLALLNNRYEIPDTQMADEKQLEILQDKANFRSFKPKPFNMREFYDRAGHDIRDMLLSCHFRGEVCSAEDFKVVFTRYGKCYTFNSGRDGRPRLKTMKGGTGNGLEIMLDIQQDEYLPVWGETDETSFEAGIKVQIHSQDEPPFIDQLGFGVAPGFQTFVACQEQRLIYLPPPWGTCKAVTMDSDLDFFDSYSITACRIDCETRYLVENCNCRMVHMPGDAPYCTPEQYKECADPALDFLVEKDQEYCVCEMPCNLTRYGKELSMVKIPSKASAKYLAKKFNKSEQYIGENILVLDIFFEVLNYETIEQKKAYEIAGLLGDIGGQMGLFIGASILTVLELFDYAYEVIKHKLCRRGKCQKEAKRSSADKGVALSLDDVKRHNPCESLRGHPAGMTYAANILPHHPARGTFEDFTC

[2] = biological target: T1, Acid-sensing ion channel 1 (Homo sapiens); assay: Inhibition of human ASIC1a endogenously expressed in HEK293 cells clamped at -100 mV gated ionic current at 10 uM at pH 6.7 by standard whole cell patch clamp assay; assay type: cell-based
[3] = biological target: T1, Acid-sensing ion channel 1 (Homo sapiens); assay: Inhibition of human ASIC1a endogenously expressed in HEK293 cells clamped at -100 mV gated ionic current at 10 uM at pH 5.0 by standard whole cell patch clamp assay; assay type: cell-based
[4] = biological target: T1, Acid-sensing ion channel 1 (Homo sapiens); assay: Inhibition of human ASIC1a endogenously expressed in HEK293 cells clamped at -100 mV gated ionic current at 100 uM at pH 6.7 by standard whole cell patch clamp assay; assay type: cell-based
[5] = biological target: T2, Acid-sensing ion channel 1 (Homo sapiens, UniProt P78348); assay: Inhibition of human ASIC1a endogenously expressed in HEK293 cells clamped at -100 mV gated ionic current at pH 5.0 by standard whole cell patch clamp assay; assay type: cell-based
T2 sequence (P78348 whole entry): T1 sequence (whole entry)

[6] = biological target: T2, Acid-sensing ion channel 1; assay: Orthosteric non-competitive inhibition of human ASIC1a endogenously expressed in HEK293 cells clamped at -100 mV gated ionic current assessed as EC50 for steady state activation at 1 uM by standard whole cell patch clamp assay (reference value: 6.57 +/- 0.01 pH); assay type: cell-based
[7] = biological target: T2, Acid-sensing ion channel 1; assay: Orthosteric non-competitive inhibition of human ASIC1a endogenously expressed in HEK293 cells clamped at -100 mV gated ionic current assessed as EC50 for steady state activation at 10 nM by standard whole cell patch clamp assay (reference value: 6.57 +/- 0.01 pH); assay type: cell-based
[8] = biological target: T2, Acid-sensing ion channel 1; assay: Orthosteric non-competitive inhibition of human ASIC1a endogenously expressed in HEK293 cells clamped at -100 mV gated ionic current assessed as EC50 for steady state activation at 100 nM by standard whole cell patch clamp assay (reference value: 6.57 +/- 0.01 pH); assay type: cell-based
Hippocampus [9] = assay: Increase in short-term potentiation in Wistar rat hippocampal CA3-CA1 region at 100 nM by patch clamp method (reference value: 225.9 +/- 12.4%); assay type: functional
[10] = biological target: T3, Acid-sensing ion channel 1 (Rattus norvegicus) (UniProt P55926); assay: Inhibition of ASIC1a in Wistar rat hippocampal neurons assessed as ASIC1a-like currents level at 10 uM by patch clamp assay; design: scale not given: the % may be the effect or the level left
T3 sequence (whole entry): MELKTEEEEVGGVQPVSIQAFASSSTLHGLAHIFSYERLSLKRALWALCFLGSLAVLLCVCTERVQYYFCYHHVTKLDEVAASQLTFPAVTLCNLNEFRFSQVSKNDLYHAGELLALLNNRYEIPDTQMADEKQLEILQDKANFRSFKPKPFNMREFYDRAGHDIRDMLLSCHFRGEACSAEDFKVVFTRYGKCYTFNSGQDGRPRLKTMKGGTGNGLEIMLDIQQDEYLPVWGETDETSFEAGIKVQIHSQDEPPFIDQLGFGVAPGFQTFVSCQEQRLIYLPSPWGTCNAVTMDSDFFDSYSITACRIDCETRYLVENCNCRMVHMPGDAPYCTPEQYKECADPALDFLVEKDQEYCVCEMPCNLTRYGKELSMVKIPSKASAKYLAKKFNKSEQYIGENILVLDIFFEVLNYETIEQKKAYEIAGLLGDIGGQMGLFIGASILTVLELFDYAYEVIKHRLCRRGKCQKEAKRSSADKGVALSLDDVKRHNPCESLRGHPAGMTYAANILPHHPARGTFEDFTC

Hippocampus [11] = assay: Increase in slope of field excitatory postsynaptic potential in Wistar rat hippocampal CA3-CA1 region at 100 nM by patch clamp method; assay type: functional, tissue-based
[12] = biological target: T1, Acid-sensing ion channel 1 (Homo sapiens); assay: Reversible inhibition of human ASIC1a endogenously expressed in HEK293 cells clamped at -100 mV gated ionic current at pH 6.7 measured after drug wash out by standard whole cell patch clamp assay; assay type: cell-based
[13] = biological target: T1, Acid-sensing ion channel 1 (Homo sapiens); assay: Reversible inhibition of human ASIC1a endogenously expressed in HEK293 cells clamped at -100 mV gated ionic current at pH 5.0 measured after drug wash out by standard whole cell patch clamp assay; assay type: cell-based
Hippocampus [14] = assay: Inhibition of amplitude of inhibitory postsynaptic currents in Wistar rat hippocampal CA3-CA1 region at 100 nM by patch clamp method; assay type: functional, tissue-based
[15] = biological target: T1, Acid-sensing ion channel 1 (Homo sapiens); assay: Orthosteric non-competitive inhibition of human ASIC1a endogenously expressed in HEK293 cells clamped at -100 mV gated ionic current assessed as maximal evoked response for steady-state activation at 10 nM by standard whole cell patch clamp assay relative to untreated control; assay type: cell-based; design: scale not given: the % may be the effect or the level left
Hippocampus [16] = assay: Effect on NMDAR-independent long-term potentiation in Wistar rat hippocampal MF-CA3 region at 100 nM in presence of NMDA receptor blocker MK801 by patch clamp method (reference value: 118.3 +/- 9.6%); assay type: functional
Hippocampus [17] = assay: Increase in amplitude of field excitatory postsynaptic potential in Wistar rat hippocampal CA3-CA1 region at 100 nM by patch clamp method; assay type: functional, tissue-based
[18] = biological target: T1, Acid-sensing ion channel 1 (Homo sapiens); assay: Inhibition of human ASIC1a endogenously expressed in HEK293 cells clamped at -20 mV gated ionic current at 100 nM by standard whole cell patch clamp assay; assay type: cell-based
[19] = biological target: T2, Acid-sensing ion channel 1; assay: Inhibition of human ASIC1a endogenously expressed in HEK293 cells clamped at -100 mV gated ionic current at pH 6.7 by standard whole cell patch clamp assay; assay type: cell-based
[20] = biological target: T1, Acid-sensing ion channel 1 (Homo sapiens); assay: Orthosteric non-competitive inhibition of human ASIC1a endogenously expressed in HEK293 cells clamped at -100 mV gated ionic current assessed as maximal evoked response for steady-state activation at 1 uM by standard whole cell patch clamp assay relative to untreated control; assay type: cell-based; design: scale not given: the % may be the effect or the level left
[21] = biological target: T3, Acid-sensing ion channel 1 (Rattus norvegicus); assay: Inhibition of ASIC1a in Wistar rat pyramidal hippocampal neurons assessed as reduction in main ionic currents at 1 uM by patch clamp assay
[22] = biological target: T1, Acid-sensing ion channel 1 (Homo sapiens); assay: Inhibition of human ASIC1a endogenously expressed in HEK293 cells clamped at -100 mV gated ionic current at 100 nM at pH 5.0 by standard whole cell patch clamp assay; assay type: cell-based
Hippocampus [23] = assay: Blocking of short-term potentiation in Wistar rat hippocampal CA3-CA1 regions at 100 nM by patch clamp method (Rvb =142.9 +/- 25%); assay type: functional
[24] = biological target: T1, Acid-sensing ion channel 1 (Homo sapiens); assay: Inhibition of human ASIC1a endogenously expressed in HEK293 cells clamped at -100 mV gated ionic current at 100 nM at pH 6.7 by standard whole cell patch clamp assay; assay type: cell-based
[25] = biological target: T1, Acid-sensing ion channel 1 (Homo sapiens); assay: Inhibition of human ASIC1a endogenously expressed in HEK293 cells clamped at -100 mV gated ionic current at 100 nM in presence of cellular membrane depolarization by standard whole cell patch clamp assay; assay type: cell-based
[26] = biological target: T4, Acid-sensing ion channel 2 (Rattus norvegicus) (UniProt Q62962); assay: Inhibition of ASIC2 in Wistar rat hippocampal neurons assessed as slow ASIC2-like currents level at 10 uM by patch clamp assay; design: scale not given: the % may be the effect or the level left
T4 sequence (whole entry): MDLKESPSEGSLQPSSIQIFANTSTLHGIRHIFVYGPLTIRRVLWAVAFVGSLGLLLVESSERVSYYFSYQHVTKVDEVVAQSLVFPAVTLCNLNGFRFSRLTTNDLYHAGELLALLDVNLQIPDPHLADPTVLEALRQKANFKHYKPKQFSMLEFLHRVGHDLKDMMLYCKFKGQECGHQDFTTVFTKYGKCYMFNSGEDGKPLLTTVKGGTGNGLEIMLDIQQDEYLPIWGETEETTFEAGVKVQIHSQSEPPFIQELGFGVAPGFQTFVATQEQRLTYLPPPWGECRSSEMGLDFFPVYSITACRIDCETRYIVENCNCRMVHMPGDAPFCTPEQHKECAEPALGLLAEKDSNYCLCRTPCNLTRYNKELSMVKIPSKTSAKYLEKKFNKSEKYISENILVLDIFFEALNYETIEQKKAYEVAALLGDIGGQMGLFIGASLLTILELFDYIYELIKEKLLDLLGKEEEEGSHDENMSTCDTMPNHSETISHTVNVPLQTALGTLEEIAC

[27] = biological target: T1, Acid-sensing ion channel 1 (Homo sapiens); assay: Orthosteric non-competitive inhibition of human ASIC1a endogenously expressed in HEK293 cells clamped at -100 mV gated ionic current assessed as maximal evoked response for steady-state activation at 100 nM by standard whole cell patch clamp assay relative to untreated control; assay type: cell-based; design: scale not given: the % may be the effect or the level left
[28] = biological target: T3, Acid-sensing ion channel 1 (Rattus norvegicus); assay: Inhibition of ASIC1a in Wistar rat pyramidal hippocampal neurons assessed as ASIC1a-like currents level at 100 nM by patch clamp assay; design: scale not given: the % may be the effect or the level left
[29] = biological target: T1, Acid-sensing ion channel 1 (Homo sapiens); assay: Inhibition of human ASIC1a endogenously expressed in HEK293 cells clamped at -100 mV gated ionic current at 100 nM by standard whole cell patch clamp assay; assay type: cell-based
[30] = biological target: T5, Acid-sensing ion channel 3 (Rattus norvegicus) (UniProt O35240); assay: Inhibition of ASIC3 in Wistar rat hippocampal neurons assessed as fast ASIC3-like currents level at 10 uM by patch clamp assay; design: scale not given: the % may be the effect or the level left
T5 sequence (whole entry): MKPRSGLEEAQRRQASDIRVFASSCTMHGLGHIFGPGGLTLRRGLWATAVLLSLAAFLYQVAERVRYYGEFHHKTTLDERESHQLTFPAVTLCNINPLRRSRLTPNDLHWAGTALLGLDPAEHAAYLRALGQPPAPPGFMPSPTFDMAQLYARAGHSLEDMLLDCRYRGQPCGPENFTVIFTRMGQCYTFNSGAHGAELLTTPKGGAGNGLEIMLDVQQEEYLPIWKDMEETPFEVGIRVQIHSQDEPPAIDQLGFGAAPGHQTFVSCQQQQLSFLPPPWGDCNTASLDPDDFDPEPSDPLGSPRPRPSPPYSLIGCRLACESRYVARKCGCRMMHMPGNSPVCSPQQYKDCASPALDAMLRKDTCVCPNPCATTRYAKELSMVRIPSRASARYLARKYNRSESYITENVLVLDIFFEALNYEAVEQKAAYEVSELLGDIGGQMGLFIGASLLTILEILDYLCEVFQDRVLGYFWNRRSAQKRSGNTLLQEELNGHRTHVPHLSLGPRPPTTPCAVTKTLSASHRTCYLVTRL

Hippocampus [31] = assay: Effect on amplitude of field excitatory postsynaptic potential in Wistar rat hippocampal CA3-CA1 region at 100 nM by patch clamp method; assay type: functional
Hippocampus [32] = assay: Effect on slope of field excitatory postsynaptic potential in Wistar rat hippocampal CA3-CA1 region at 100 nM by patch clamp method; assay type: functional
Hippocampus [33] = assay: Inhibition of amplitude of excitatory postsynaptic currents in Wistar rat hippocampal CA3-CA1 region at 100 nM by patch clamp method; assay type: functional, tissue-based

- inhibition [1]: 78.7%
- inhibition [2]: 77.5%
- inhibition [3]: 101%
- inhibition [4]: 53.2%
Compound: CCN(CC)CCN(CC)c1ccc2cc(C(=N)N)c(=O)oc2c1

- IC50 [5]: 7.34 µM
- EC50 [6]: 6.18 pH
- EC50 [7]: 6.5 pH
- EC50 [8]: 6.4 pH
- inhibition [2]: 2.5%
- Activity [10]: 48.3%
- inhibition [12]: Active
- inhibition [13]: Active
- Activity [15]: 93.2%
- inhibition [18]: 45.8%
- IC50 [19]: 0.0274 µM
- inhibition [3]: 44.8%
- Activity [20]: 72.2%
- inhibition [21]: inactive
- inhibition [22]: 98.6%
- inhibition [24]: 23.7%
- inhibition [25]: Active
- Activity [26]: 99.3%
- Activity [27]: 83.9%
- Activity [28]: 9.39%
- inhibition [29]: 42.1%
- Activity [30]: 45.2%
Compound: CCN(CC)CCN(Cc1ccc(Cl)cc1)c1ccc2cc(C(=N)N)c(=O)oc2c1
- Activity (Hippocampus [9]): 193.2%
- Activity (Hippocampus [11]): Active
- inhibition (Hippocampus [14]): inactive
- Activity (Hippocampus [16]): 117%
- Activity (Hippocampus [17]): Active
- Activity (Hippocampus [23]): 106.2%
- Activity (Hippocampus [31]): 104.6%
- Activity (Hippocampus [32]): 103.4%
- inhibition (Hippocampus [33]): inactive

- inhibition [1]: 36.6%
- inhibition [2]: 42.9%
- inhibition [3]: 79.2%
- inhibition [4]: 22.3%
Compound: CN(Cc1ccccc1)c1ccc2cc(C(=N)N)c(=O)oc2c1
